This note sets out measurements from patent publication US20240368163A1, “COMPOUNDS AND METHODS FOR MODULATING SPLICING” (REMIX THERAPEUTICS INC., priority 2021, published 2024).

What all share (format): cell-based, human
The test system of test [1] is HTT. As to the kind of experiment: HiBiT protein abundance assay, HTT. Particulars: Homo sapiens, K562, 24 h, Table 13A, modified K562 cells. The method, boiled down: (§1)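 Protein abundance measured by Nano-Glo HiBiT lytic luminescence after 24 h compound exposure of modified K562 lines, 10000 cells/well, top final dose 10 μM in 3-fold steps. Four-parameter fit of control-normalised response gives concentration reducing abundance to 50% of untreated.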
In general terms: The HiBiT peptide binds its large partner to form an active luciferase.

Test [2] has as its system MYB. As to the kind of experiment: Splicing RT-qPCR assay, MYB mRNA canonical junction (CJ) and alternative junction (AJ). Particulars: Homo sapiens; for AC50: increase in AJ mRNA. The method, boiled down: (§2)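 A673 or K562 cells treated 24 h at 37 °C with 11-point 3-fold dilutions, top 10 uM, DMSO ≤0.25%. Lysates read by RT-qPCR for CJ and AJ isoforms, normalized to GAPDH, GUSB or PPIA; ΔΔCt vs DMSO converted to RQ, then percent response.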
For orientation: Quantitative PCR measures a nucleic acid by following its amplification.

In test [3] the test system is MYB. In words: HiBiT protein abundance assay, MYB. As to conditions: Homo sapiens, K562, 24 h, Table 13A, modified K562 cells. An outline of the steps: as §1
The test system of test [4] is Target C. In words: Splicing RT-qPCR panel, Target C canonical junction (CJ) mRNA. Particulars: Homo sapiens, RT-qPCR panel, canonical junction mRNA; compound concentration having 50% response in CJ decrease; read-out: Target C IC50 (decrease in CJ mRNA levels). An outline of the steps:
as §2

Test [5] has as its system SMN2. As to the kind of experiment: Splicing RT-qPCR panel, SMN2 canonical junction (CJ) mRNA. As to conditions: Homo sapiens, RT-qPCR panel, canonical junction mRNA; compound concentration having 50% response in CJ decrease; read-out: SMN2 IC50 (decrease in CJ mRNA levels). An outline of the steps:
as §2

Test [6] concerns Target C. In words: HiBiT protein abundance assay, Target C. As to conditions: Homo sapiens, K562, 24 h, Table 13A, modified K562 cells. The method, boiled down:
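Target protein levels in engineered HiBiT-tagged cells were read by lytic luminescence after 24 h compound exposure (10000 cells/well, 10 μM top final, 3-fold steps, ≤0.25% DMSO). Unmodified K562 served as baseline; four-parameter regression gave concentration reducing abundance to 50%.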

Test [7] concerns HTT. As to the kind of experiment: Splicing RT-qPCR assay, HTT mRNA canonical junction (CJ) and alternative junction (AJ). As to conditions: Homo sapiens; for AC50: increase in AJ mRNA. The method, boiled down:
as §2

The mark [8] stands for this setting: 24 h, decrease in CJ mRNA, A673 or K562 cells, 24 hours treatment, RT-qPCR, read-out: MYB CJ IC50.
Setting [9] is: 24 h, A673 or K562 cells, 24 hours treatment, RT-qPCR.
The mark [10] stands for this setting: RT-qPCR panel, canonical junction mRNA, compound concentration having 50% response in CJ decrease, read-out: MYB IC50 (decrease in CJ mRNA levels).
The mark [11] stands for this setting: 24 h, decrease in CJ mRNA, A673 or K562 cells, 24 hours treatment, RT-qPCR, read-out: HTT CJ IC50.
The mark [12] stands for this setting: RT-qPCR panel, canonical junction mRNA, compound concentration having 50% response in CJ decrease, read-out: HTT IC50 (decrease in CJ mRNA levels).

Where only a bound is given, the exact number is not on record here.

Take `CCN(c1ccc(-c2ccc(-c3cn[nH]c3)c3ncsc23)nn1)C1CC(C)(C)NC(C)(C)C1` [Compound 225]: the IC50 in test [1] lay in the range of 0.1 to 1 µM; in test [2] (setting [8]), 0.1 to 1 µM; in test [2] (setting [10]) it was 0.1 to 1 µM; in test [3], 0.1 to 1 µM; in test [4], 1 to 10 µM; in test [5], 0.1 to 1 µM. Also, the IC50 in test [6], in test [7] (setting [11]) and in test [7] (setting [12]) was 1 to 10 µM throughout. In addition, the AC50 was > 10 µM in test [2] (setting [9]) and 1 to 10 µM in test [7] (setting [9]).

For `c1n[nH]cc1-c1ccc(-c2ccc(N3CC4(CCNCC4)C3)nn2)c2[nH]ncc12` [Compound 229], the IC50 in test [1], in test [2] (setting [8]), in test [2] (setting [10]), in test [3], in test [4] and in test [5] was 1 to 10 µM throughout. The IC50 in test [6], in test [7] (setting [11]) and in test [7] (setting [12]) was 1 to 10 µM in each case. The AC50 in test [2] (setting [9]) and in test [7] (setting [9]) was 1 to 10 µM in each case.

As to `c1n[nH]cc1-c1ccc(-c2ccc(OC3CCNCC3)nn2)c2[nH]ncc12` [Compound 230], the IC50 is 1 to 10 µM in test [1]; > 10 µM in test [2] (setting [8]); > 10 µM in test [2] (setting [10]); 1 to 10 µM in test [3]; > 10 µM in test [4]; 1 to 10 µM in test [5]. Moreover, the IC50 in test [6], in test [7] (setting [11]) and in test [7] (setting [12]) was > 10 µM each time. Further, the AC50 in test [2] (setting [9]) and in test [7] (setting [9]) was > 10 µM in each case.

`[2H]C([2H])([2H])N(c1ccc(-c2ccc(-c3cn[nH]c3)c3ncsc23)nn1)C1CC(C)(C)NC(C)(C)C1` [Compound 231]: the IC50 in test [1] is < 0.1 µM; in test [2] (setting [8]), 0.1 to 1 µM; in test [2] (setting [10]) it was 0.1 to 1 µM; in test [3] it was 0.1 to 1 µM; in test [4] it was 0.1 to 1 µM; in test [5] it was < 0.1 µM. Besides, the IC50 in test [6], in test [7] (setting [11]) and in test [7] (setting [12]) was 0.1 to 1 µM each time. Besides, the AC50 in test [2] (setting [9]) and in test [7] (setting [9]) was 0.1 to 1 µM in each case.

On to `Cn1cc(-c2ccc(-c3ccc(OC4CC(C)(C)NC(C)(C)C4)nn3)c3[nH]ncc23)cn1` [Compound 232], for which the IC50 in test [1] is 0.1 to 1 µM; in test [2] (setting [8]), 1 to 10 µM; in test [2] (setting [10]), 1 to 10 µM; in test [3] it was 1 to 10 µM; in test [4], 1 to 10 µM; in test [5], 0.1 to 1 µM. In addition, the IC50 in test [6], in test [7] (setting [11]) and in test [7] (setting [12]) was 1 to 10 µM each time. Moreover, the AC50 in test [2] (setting [9]) and in test [7] (setting [9]) was 0.1 to 1 µM throughout.

As for `COc1cc(-c2ccc(-c3ccc(N(C)C4CC(C)(C)NC(C)(C)C4)nn3)c3ncsc23)cnn1` [Compound 233], the IC50 in test [1], in test [2] (setting [8]), in test [2] (setting [10]), in test [3], in test [4] and in test [5] was 0.1 to 1 µM each time. The half-inhibitory concentration (IC50) in test [6], in test [7] (setting [11]) and in test [7] (setting [12]) was 0.1 to 1 µM throughout. Besides, the AC50 in test [2] (setting [9]) and in test [7] (setting [9]) was 0.1 to 1 µM in each case.

On to `CN(c1ccc(-c2ccc(-c3cnnc(O)c3)c3scnc23)nn1)C1CC(C)(C)NC(C)(C)C1` [Compound 234], for which the IC50 was 1 to 10 µM in test [1]; > 10 µM in test [2] (setting [8]); > 10 µM in test [2] (setting [10]); 1 to 10 µM in test [3]; > 10 µM in test [4]; 0.1 to 1 µM in test [5]. In addition, the IC50 in test [6], in test [7] (setting [11]) and in test [7] (setting [12]) was > 10 µM each time. In addition, the AC50 in test [2] (setting [9]) and in test [7] (setting [9]) was > 10 µM in each case.

On to `CN1C[C@@H]2[C@H](C1)[C@H]2N(C)c1ccc(-c2ccc(-c3cn[nH]c3)c3ncsc23)nn1` [Compound 235], for which the IC50 in test [1] is 1 to 10 µM; in test [2] (setting [8]), > 10 µM; in test [2] (setting [10]), > 10 µM; in test [3], 1 to 10 µM; in test [4] it was > 10 µM; in test [5] it was 1 to 10 µM. For the same compound, the values for the IC50 in test [6], in test [7] (setting [11]) and in test [7] (setting [12]) were 0.1 to 1 µM, > 10 µM and > 10 µM, respectively. Also, the AC50 in test [2] (setting [9]) and in test [7] (setting [9]) was > 10 µM throughout.

For `c1n[nH]cc1-c1ccc(-c2ccc(NC3CNC3)nn2)c2[nH]ncc12` [Compound 237], the IC50 in test [1], in test [2] (setting [8]), in test [2] (setting [10]), in test [3], in test [4] and in test [5] was > 10 µM each time. Also, the IC50 in test [6], in test [7] (setting [11]) and in test [7] (setting [12]) was > 10 µM throughout. Besides, the AC50 in test [2] (setting [9]) and in test [7] (setting [9]) was > 10 µM throughout.

With `c1n[nH]cc1-c1ccc(-c2ccc(N3CCC4(CC3)CNC4)nn2)c2[nH]ncc12` [Compound 238], the IC50 in test [1], in test [2] (setting [8]), in test [2] (setting [10]), in test [3], in test [4] and in test [5] was > 10 µM throughout. In addition, the IC50 in test [6], in test [7] (setting [11]) and in test [7] (setting [12]) was > 10 µM throughout. Moreover, the AC50 in test [2] (setting [9]) and in test [7] (setting [9]) was > 10 µM in each case.

Turning to `c1n[nH]cc1-c1ccc(-c2ccc(N3CCC4(CCNCC4)C3)nn2)c2[nH]ncc12` [Compound 239], the IC50 in test [1], in test [2] (setting [8]), in test [2] (setting [10]), in test [3], in test [4] and in test [5] was > 10 µM each time. The IC50 in test [6], in test [7] (setting [11]) and in test [7] (setting [12]) was > 10 µM each time. The AC50 in test [2] (setting [9]) and in test [7] (setting [9]) was > 10 µM each time.

`c1n[nH]cc1-c1ccc(-c2ccc(N3CCC4(CCNC4)CC3)nn2)c2[nH]ncc12` [Compound 240]: the IC50 in test [1], in test [2] (setting [8]), in test [2] (setting [10]), in test [3], in test [4] and in test [5] was > 10 µM throughout. In addition, the IC50 in test [6], in test [7] (setting [11]) and in test [7] (setting [12]) was > 10 µM each time. Further, the AC50 in test [2] (setting [9]) and in test [7] (setting [9]) was > 10 µM in each case.

As to `c1n[nH]cc1-c1ccc(-c2ccc(N3CCNCC3)nn2)c2[nH]ncc12` [Compound 241], the IC50 in test [1] was 1 to 10 µM; in test [2] (setting [8]) it was > 10 µM; in test [2] (setting [10]), > 10 µM; in test [3] it was 1 to 10 µM; in test [4], > 10 µM; in test [5], 1 to 10 µM. In addition, the values for the IC50 in test [6], in test [7] (setting [11]) and in test [7] (setting [12]) were 1 to 10 µM, > 10 µM and > 10 µM, respectively. In addition, the AC50 in test [2] (setting [9]) and in test [7] (setting [9]) was 1 to 10 µM in each case.

As for `CN(c1ccc(-c2ccc(-c3cnn(C)c3)c3cn[nH]c23)nn1)C1CC(C)(C)NC(C)(C)C1` [Compound 243], the 50% inhibitory concentration (IC50) was 1 to 10 µM in test [1]; 1 to 10 µM in test [2] (setting [8]); 1 to 10 µM in test [2] (setting [10]); 1 to 10 µM in test [3]; > 10 µM in test [4]; 0.1 to 1 µM in test [5]. Besides, the IC50 in test [6] is > 10 µM; in test [7] (setting [11]), 1 to 10 µM; in test [7] (setting [12]), 1 to 10 µM. Further, the AC50 in test [2] (setting [9]) and in test [7] (setting [9]) was 1 to 10 µM in each case.

Turning to `c1n[nH]cc1-c1ccc(-c2ccc(N3CCCC4(CNC4)C3)nn2)c2[nH]ncc12` [Compound 251], the IC50 in test [1], in test [2] (setting [8]), in test [2] (setting [10]), in test [3], in test [4] and in test [5] was > 10 µM throughout. The 50% inhibitory concentration (IC50) in test [6], in test [7] (setting [11]) and in test [7] (setting [12]) was > 10 µM throughout. Also, the AC50 in test [2] (setting [9]) and in test [7] (setting [9]) was > 10 µM throughout.

The term IC50 denotes the concentration that gives 50% inhibition. The AC50 is the concentration giving half of the maximal activity seen. Read a low AC50 as greater potency.
